Literature values in article PMC12329520 (Molecular Therapy. Nucleic Acids, 2025).

Tested on: exon 23 of the Dmd gene
Conditions: CP10 conjugated to 2OMePS ASO, mdx mouse

In the case of QLFPLFR [CP10], the “exon skipping in skeletal muscle tissues and heart compared with an unconjugated ASO of the same chemistry” value is listed as “significant improvement in exon skipping”.
